What all share (assay): BROMOscan competition binding assay (BromoMAX, Eurofins DiscoverX)
The target of one test is T1, BAZ2B (Homo sapiens, UniProt Q9UIF8).
T1 construct: purchased Eurofins DiscoverX (BROMOscan, BromoMAX)
The note with it: for Percent Control BAZ2B: compound concentration 1000 nM, lower percentage control = stronger affinity.

The next test has as its target T2, TAF1L(2) (Homo sapiens, UniProt Q8IZX4).
T2 construct: TAF1L(2); purchased Eurofins DiscoverX (BROMOscan, BromoMAX)
T2 sequence (Q8IZX4 1519-1654 limits assumed): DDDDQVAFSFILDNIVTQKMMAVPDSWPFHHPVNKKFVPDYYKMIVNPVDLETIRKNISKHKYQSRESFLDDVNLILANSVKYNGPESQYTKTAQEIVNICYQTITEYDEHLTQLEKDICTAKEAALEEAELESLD
Particulars: for Percent Control TAF1L(2): compound concentration 1000 nM, lower percentage control = stronger affinity.

The next test addresses T3, WDR9(2) (Homo sapiens, UniProt Q9NSI6).
T3 construct: WDR9(2); purchased Eurofins DiscoverX (BROMOscan, BromoMAX)
Particulars: for Percent Control WDR9(2): compound concentration 1000 nM, lower percentage control = stronger affinity.

The target in a further test is T4, BRD1 (Homo sapiens, UniProt O95696).
T4 construct: purchased Eurofins DiscoverX (BROMOscan, BromoMAX)
T4 sequence (O95696 1-1058): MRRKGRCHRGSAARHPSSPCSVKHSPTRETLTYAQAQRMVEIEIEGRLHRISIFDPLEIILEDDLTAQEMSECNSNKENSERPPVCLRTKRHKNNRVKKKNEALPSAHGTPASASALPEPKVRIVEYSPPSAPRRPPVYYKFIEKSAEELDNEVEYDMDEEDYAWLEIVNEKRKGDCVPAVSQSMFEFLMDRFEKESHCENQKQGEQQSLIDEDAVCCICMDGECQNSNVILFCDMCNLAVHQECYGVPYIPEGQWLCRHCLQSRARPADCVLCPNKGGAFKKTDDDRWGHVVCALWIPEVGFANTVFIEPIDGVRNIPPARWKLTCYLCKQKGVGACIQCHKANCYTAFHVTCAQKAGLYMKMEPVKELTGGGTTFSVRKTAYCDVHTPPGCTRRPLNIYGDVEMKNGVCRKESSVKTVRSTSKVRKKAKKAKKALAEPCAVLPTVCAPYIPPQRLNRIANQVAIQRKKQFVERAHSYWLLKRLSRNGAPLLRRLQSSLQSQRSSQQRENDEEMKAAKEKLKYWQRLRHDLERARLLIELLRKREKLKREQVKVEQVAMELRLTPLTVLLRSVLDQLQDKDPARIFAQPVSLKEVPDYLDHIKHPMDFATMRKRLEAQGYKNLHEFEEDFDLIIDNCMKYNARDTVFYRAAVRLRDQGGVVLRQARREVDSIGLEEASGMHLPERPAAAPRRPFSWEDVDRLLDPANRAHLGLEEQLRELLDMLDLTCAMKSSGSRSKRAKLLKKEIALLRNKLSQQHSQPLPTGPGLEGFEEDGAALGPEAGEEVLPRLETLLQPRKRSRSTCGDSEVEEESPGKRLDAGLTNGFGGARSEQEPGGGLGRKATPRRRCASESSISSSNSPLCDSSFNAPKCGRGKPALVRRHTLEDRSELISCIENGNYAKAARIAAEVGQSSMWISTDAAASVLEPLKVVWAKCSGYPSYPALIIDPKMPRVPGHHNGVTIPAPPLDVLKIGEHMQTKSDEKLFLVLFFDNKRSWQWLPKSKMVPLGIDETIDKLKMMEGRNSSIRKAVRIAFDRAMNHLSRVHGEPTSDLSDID
The note with it: for Percent Control BRD1: compound concentration 1000 nM, lower percentage control = stronger affinity.

Another test has as its target T5, TAF1(2) (Homo sapiens, UniProt P21675).
T5 construct: TAF1(2); purchased Eurofins DiscoverX (BROMOscan, BromoMAX)
T5 sequence (P21675 1521-1656 limits assumed): T2 sequence (Q8IZX4 1519-1654 limits assumed) with M44V, V49M, I100V, I105L
The note with it: for Percent Control TAF1(2): compound concentration 1000 nM, lower percentage control = stronger affinity.

The target of another test is T6, PBRM1(5) (Homo sapiens, UniProt Q86U86).
T6 construct: PBRM1(5); purchased Eurofins DiscoverX (BROMOscan, BromoMAX)
Particulars: for Percent Control PBRM1(5): compound concentration 1000 nM, lower percentage control = stronger affinity.

In another test the target is T7, BRD3(1) (Homo sapiens, UniProt Q15059).
T7 construct: BRD3(1); purchased Eurofins DiscoverX (BROMOscan, BromoMAX)
Particulars: for Percent Control BRD3(1): compound concentration 1000 nM, lower percentage control = stronger affinity.

In a further test the target is T8, SMARCA2 (Homo sapiens, UniProt P51531).
T8 construct: purchased Eurofins DiscoverX (BROMOscan, BromoMAX)
Particulars: for Percent Control SMARCA2: compound concentration 1000 nM, lower percentage control = stronger affinity.

In a further test the target is T9, PBRM1(2) (Homo sapiens, UniProt Q86U86).
T9 construct: PBRM1(2); purchased Eurofins DiscoverX (BROMOscan, BromoMAX)
The note with it: for Percent Control PBRM1(2): compound concentration 1000 nM, lower percentage control = stronger affinity.

Numbering of substitutions follows the chain as printed. Where a SMILES comes first, the peptide text is derived from it. Bridges are numbered along the chain shown (N, C = ends).

T1 sequence (Q9UIF8 whole entry): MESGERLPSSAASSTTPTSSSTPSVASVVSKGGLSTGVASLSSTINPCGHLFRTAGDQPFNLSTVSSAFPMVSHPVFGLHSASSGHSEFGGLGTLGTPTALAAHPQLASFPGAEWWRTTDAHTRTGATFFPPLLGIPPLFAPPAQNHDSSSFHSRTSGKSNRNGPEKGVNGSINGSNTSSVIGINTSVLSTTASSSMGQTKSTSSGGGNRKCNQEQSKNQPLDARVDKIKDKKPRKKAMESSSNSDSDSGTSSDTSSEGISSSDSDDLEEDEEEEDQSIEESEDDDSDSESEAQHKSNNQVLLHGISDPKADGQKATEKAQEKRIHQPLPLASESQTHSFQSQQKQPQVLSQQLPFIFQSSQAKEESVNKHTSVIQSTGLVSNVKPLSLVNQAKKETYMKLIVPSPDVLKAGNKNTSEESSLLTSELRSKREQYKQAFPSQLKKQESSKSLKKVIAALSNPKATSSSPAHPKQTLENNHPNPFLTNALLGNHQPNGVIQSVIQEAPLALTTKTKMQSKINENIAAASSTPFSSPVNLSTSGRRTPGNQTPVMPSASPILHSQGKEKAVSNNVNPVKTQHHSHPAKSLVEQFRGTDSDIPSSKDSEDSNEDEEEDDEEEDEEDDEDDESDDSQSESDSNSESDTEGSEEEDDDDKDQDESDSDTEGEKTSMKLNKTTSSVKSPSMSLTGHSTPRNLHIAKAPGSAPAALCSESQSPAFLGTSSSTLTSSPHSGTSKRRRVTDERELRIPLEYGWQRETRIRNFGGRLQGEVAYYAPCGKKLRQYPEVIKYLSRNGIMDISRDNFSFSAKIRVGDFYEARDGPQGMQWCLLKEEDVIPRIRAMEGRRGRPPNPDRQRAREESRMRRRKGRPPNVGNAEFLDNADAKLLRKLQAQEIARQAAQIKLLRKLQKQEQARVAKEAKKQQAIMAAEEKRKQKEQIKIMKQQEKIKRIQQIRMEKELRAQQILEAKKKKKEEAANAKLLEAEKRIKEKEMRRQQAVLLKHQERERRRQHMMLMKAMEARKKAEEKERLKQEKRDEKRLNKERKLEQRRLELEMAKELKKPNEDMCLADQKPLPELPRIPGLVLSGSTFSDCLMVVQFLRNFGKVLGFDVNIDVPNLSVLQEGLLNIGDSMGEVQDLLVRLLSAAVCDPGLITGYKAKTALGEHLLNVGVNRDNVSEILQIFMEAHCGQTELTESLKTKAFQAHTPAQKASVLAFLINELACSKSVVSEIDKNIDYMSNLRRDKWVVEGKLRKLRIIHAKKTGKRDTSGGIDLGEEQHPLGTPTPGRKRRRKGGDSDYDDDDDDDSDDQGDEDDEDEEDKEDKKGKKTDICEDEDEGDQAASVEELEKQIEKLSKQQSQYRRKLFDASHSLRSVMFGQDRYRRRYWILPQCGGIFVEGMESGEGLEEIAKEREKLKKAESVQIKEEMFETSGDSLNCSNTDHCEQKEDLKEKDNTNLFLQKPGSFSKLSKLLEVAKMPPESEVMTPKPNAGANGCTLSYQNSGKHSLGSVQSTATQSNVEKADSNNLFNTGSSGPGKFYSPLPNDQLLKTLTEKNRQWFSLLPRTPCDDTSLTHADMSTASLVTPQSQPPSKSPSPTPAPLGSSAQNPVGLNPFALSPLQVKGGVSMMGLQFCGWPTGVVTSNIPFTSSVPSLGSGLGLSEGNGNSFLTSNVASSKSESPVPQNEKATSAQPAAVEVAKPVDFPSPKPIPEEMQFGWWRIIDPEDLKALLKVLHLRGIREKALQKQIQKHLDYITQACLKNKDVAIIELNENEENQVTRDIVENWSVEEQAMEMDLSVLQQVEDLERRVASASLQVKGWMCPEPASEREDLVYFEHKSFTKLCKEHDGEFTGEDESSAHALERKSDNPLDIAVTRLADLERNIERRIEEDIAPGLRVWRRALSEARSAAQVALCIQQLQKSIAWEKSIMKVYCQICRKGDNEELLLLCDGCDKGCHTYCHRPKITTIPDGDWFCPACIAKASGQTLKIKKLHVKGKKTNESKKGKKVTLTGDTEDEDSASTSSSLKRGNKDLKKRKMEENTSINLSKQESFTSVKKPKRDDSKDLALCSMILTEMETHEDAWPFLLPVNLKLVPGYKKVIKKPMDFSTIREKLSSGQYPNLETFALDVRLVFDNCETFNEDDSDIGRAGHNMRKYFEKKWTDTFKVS
T9 sequence (Q86U86 178-291 limits assumed): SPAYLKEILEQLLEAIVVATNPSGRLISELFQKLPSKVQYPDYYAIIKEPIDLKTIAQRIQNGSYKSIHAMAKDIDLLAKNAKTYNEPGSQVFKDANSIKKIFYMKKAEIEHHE
T8 sequence (P51531 whole entry): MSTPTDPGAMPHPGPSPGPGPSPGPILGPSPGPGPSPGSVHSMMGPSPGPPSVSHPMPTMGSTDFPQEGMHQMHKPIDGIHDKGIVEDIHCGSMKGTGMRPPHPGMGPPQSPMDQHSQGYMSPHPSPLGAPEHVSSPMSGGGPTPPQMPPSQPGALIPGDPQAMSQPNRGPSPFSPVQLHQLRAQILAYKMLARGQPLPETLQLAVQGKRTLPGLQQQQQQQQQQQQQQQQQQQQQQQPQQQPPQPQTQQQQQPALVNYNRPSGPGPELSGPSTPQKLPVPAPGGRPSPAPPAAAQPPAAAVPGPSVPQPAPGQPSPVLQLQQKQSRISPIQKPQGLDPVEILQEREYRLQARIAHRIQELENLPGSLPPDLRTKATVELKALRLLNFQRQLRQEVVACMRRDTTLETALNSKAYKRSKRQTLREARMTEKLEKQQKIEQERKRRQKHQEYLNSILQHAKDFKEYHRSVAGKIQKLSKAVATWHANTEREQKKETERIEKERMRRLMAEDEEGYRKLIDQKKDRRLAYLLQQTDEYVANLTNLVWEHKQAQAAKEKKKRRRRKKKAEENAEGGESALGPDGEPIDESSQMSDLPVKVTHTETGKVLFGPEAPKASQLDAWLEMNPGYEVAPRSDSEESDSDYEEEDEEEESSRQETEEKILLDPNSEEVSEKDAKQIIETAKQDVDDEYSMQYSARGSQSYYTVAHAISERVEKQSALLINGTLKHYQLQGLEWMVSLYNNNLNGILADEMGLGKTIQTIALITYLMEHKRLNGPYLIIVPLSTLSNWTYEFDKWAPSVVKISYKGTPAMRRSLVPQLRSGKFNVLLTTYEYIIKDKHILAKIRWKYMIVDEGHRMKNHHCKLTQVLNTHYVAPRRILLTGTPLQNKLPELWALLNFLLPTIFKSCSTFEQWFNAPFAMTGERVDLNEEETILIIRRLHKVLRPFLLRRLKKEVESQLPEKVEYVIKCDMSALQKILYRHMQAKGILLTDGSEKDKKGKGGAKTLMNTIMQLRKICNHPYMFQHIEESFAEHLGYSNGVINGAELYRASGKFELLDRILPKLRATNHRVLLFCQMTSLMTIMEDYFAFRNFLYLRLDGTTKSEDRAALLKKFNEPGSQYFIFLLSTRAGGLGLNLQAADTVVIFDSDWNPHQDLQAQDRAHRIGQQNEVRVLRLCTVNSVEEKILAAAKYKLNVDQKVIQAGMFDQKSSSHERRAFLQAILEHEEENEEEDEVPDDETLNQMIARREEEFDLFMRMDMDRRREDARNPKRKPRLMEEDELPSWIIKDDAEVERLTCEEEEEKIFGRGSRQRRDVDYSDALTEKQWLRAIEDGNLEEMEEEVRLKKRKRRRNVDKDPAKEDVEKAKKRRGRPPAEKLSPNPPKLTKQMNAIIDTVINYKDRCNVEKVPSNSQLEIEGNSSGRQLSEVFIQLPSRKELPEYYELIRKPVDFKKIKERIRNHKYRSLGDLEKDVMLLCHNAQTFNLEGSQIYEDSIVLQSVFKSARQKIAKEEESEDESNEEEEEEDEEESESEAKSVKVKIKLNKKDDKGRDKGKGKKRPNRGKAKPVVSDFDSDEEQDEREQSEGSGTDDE
T6 sequence (Q86U86 645-766 limits assumed): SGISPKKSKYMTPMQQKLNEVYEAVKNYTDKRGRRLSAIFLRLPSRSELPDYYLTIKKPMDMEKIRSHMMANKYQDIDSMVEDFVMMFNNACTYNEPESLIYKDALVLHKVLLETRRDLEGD
T7 sequence (Q15059 24-144 limits assumed): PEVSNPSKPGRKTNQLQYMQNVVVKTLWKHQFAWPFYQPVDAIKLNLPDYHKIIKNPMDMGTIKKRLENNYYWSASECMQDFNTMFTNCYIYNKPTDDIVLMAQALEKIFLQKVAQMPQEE
T3 sequence (Q9NSI6 1307-1433 limits assumed): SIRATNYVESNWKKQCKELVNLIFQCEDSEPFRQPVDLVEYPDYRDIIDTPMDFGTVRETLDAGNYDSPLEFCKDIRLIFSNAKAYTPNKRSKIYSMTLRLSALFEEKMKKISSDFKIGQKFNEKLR

For the molecule `CC[C@H](C)[C@@H]1NC(=O)[C@H]([C@@H](C)O)NC(=O)[C@H](CCCCN)NC(=O)[C@H](Cc2c[nH]c3ccccc23)NC(=O)CSC[C@@H](C(N)=O)NC(=O)[C@H](CCC(N)=O)NC(=O)[C@H](CCCCNC(C)=O)NC(=O)[C@H]([C@@H](C)O)NC(=O)[C@H](CCCNC(=N)N)NC(=O)[C@H](Cc2c[nH]c3ccccc23)NC(=O)[C@H]([C@@H](C)O)NC(=O)[C@H](CCCCNC(C)=O)NC(=O)CNC(=O)[C@H](CCCCNC(C)=O)NC1=O` [3.1B] ({CH2CO}-WKTIK(Ac)GK(Ac)TWRTK(Ac)QC-NH2; thioether N-14), the “Percent Control BAZ2B” value at BAZ2B is 100%. In addition, the “Percent Control TAF1L(2)” value at TAF1L(2) is listed as 100%. Further, the “Percent Control WDR9(2)” value at WDR9(2) worked out at 96%. The “Percent Control BRD1” value at BRD1 is 100%. Further, the “Percent Control TAF1(2)” value on TAF1(2) is reported as 82%. Besides, on PBRM1(5), the “Percent Control PBRM1(5)” value came out at 100%. Besides, at BRD3(1), the “Percent Control BRD3(1)” value is listed as 1.4%. The “Percent Control SMARCA2” value at SMARCA2 is 34%. Moreover, the “Percent Control PBRM1(2)” value at PBRM1(2) stood at 100%.
For `CC[C@H](C)[C@@H]1NC(=O)[C@H](Cc2c[nH]c3ccccc23)NC(=O)[C@H](Cc2c[nH]c3ccccc23)NC(=O)CSC[C@@H](C(N)=O)NC(=O)CNC(=O)[C@H](CCCCNC(C)=O)NC(=O)[C@H](CCCCN)NC(=O)[C@H](C(C)C)NC(=O)[C@H](CCCCNC(C)=O)NC(=O)[C@@H]2CCCN2C(=O)[C@H]([C@@H](C)CC)NC1=O` [3.1C] ({CH2CO}-WWIIPK(Ac)VKK(Ac)GC-NH2; thioether N-11), the “Percent Control BAZ2B” value on BAZ2B is on record as 100%. For the same molecule, the “Percent Control TAF1L(2)” value on TAF1L(2) came out at 100%. The “Percent Control WDR9(2)” value on WDR9(2) is on record as 87%. On BRD1, the “Percent Control BRD1” value amounted to 97%. Besides, the “Percent Control TAF1(2)” value on TAF1(2) worked out at 79%. For the same molecule, the “Percent Control PBRM1(5)” value at PBRM1(5) came to 89%. Also, the “Percent Control BRD3(1)” value at BRD3(1) is on record as 0%. The “Percent Control SMARCA2” value on SMARCA2 is given as 35%. Moreover, the “Percent Control PBRM1(2)” value on PBRM1(2) is 100%.
Regarding `CC[C@H](C)[C@H](NC(=O)[C@H](CCCNC(=N)N)NC(=O)[C@H](CCCCNC(C)=O)NC(=O)[C@H](CCCNC(=N)N)NC(=O)[C@H](CC(C)C)NC(=O)[C@@H]1CSCC(=O)N[C@@H](Cc2c[nH]c3ccccc23)C(=O)N[C@@H](CCCCNC(C)=O)C(=O)NCC(=O)N[C@@H](Cc2ccc(O)cc2)C(=O)N[C@@H](CC(C)C)C(=O)N1)C(=O)N[C@@H](CCC(N)=O)C(=O)N[C@@H](CCCNC(=N)N)C(=O)N[C@H](C(=O)N[C@@H](Cc1ccc(O)cc1)C(=O)N[C@@H](CC(N)=O)C(N)=O)[C@@H](C)O` [4.2C] ({CH2CO}-WK(Ac)GYLCLRK(Ac)RIQRTYN-NH2; thioether N-6), the remaining binding at 1 µM amounted to 99% on BAZ2B (read-out: Percent Control BAZ2B); 100% on TAF1L(2) (read-out: Percent Control TAF1L(2)); 90% at PBRM1(5) (read-out: Percent Control PBRM1(5)); 100% on BRD3(1) (read-out: Percent Control BRD3(1)); 100% at PBRM1(2) (read-out: Percent Control PBRM1(2)). In addition, the percent of control binding at 1 µM at WDR9(2) came to 85%; at BRD1, 84%; on TAF1(2), 67%; at SMARCA2, 36%.
